Data on one molecule can be found in publication PMC8086144, “A novel peptide antagonist of the human growth hormone receptor” (The Journal of Biological Chemistry, 2021).

For this assay, the target named is T1, hGHR (Homo sapiens, UniProt P10912).
T1 construct: previously reported to express high levels of endogenous hGHR; host or cells: SK-MEL-28, MALME-3M, IM9
T1 sequence (P10912 19-638): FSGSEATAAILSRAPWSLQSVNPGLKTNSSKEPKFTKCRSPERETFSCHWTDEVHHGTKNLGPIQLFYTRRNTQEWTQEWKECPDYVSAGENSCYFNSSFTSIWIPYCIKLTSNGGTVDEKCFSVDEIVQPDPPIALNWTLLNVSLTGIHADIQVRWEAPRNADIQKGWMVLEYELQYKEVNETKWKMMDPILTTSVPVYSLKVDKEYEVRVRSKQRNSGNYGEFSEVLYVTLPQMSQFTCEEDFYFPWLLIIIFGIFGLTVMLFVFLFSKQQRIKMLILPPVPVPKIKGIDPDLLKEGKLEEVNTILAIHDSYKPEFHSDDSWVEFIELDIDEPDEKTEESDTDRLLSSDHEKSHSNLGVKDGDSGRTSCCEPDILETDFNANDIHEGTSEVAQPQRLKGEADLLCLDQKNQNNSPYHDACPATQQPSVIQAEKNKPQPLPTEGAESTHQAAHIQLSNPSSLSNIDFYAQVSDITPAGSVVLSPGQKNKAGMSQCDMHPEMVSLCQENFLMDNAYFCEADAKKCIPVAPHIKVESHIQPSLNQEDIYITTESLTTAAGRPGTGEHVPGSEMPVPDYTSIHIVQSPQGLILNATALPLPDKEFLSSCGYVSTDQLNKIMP
The assay can be described thus: hGH-mediated pSTAT5 in IM9 cells, Western blot. Type of assay: cell-based. To be noted: 200 nM S1H with 2.5 nM hGH, 20 min, Western blot densitometry, n = 3. Here is the method:
SK-MEL-28, MALME-3M, and T84 cells were grown and maintained in Eagle's Minimal Essential Medium. IM9 and L cells were grown in RPMI-1640 media and Dulbecco's modified Eagle's medium, respectively. All growth media was supplemented with 10% fetal bovine serum and 1× antibiotic-antimycotic […] solution. Cells were grown at 37 °C under a 5% CO2 atmosphere in a humidified incubator, and growth media was replaced every 48 h during incubation. No hGH was present in or added to the growth media unless specifically indicated. […]
Following treatment, the cells were harvested at the indicated time points, and the total protein was extracted. […] Sample protein concentration was quantified using a Bradford assay with bovine serum albumin as the protein standard. Absorbance at 595 nm was measured using a Spectramax 250 multimode plate reader (Molecular Devices) and processed using SoftmaxPro v4.7.1 software.
Cytosolic fractions from treated cells were thawed on ice, and 80 μg protein was loaded onto polyacrylamide gels for separation by SDS-PAGE. […] Chemiluminescence signals were detected using a GelDoc (BioRad) fluorescence imager. […] Percent inhibition was then measured by subtracting the pSTAT5 band intensity in each lane from the pSTAT5 band intensity of hGH-treated samples. […]

For the molecule `CC[C@H](C)[C@H](NC(=O)[C@H](Cc1ccc(O)cc1)NC(C)=O)C(=O)N1CCC[C@H]1C(=O)N[C@@H](CCCCN)C(=O)N[C@@H](CCC(=O)O)C(=O)N[C@@H](CCC(N)=O)C(=O)N[C@@H](CCCCN)C(=O)N[C@@H](Cc1ccc(O)cc1)C(=O)N[C@@H](CO)C(=O)N[C@@H](Cc1ccccc1)C(=O)N[C@@H](CC(C)C)C(=O)N[C@@H](CCC(N)=O)C(=O)N[C@@H](CC(N)=O)C(=O)N1CCC[C@H]1C(=O)N[C@@H](CCC(N)=O)C(=O)N[C@H](C(N)=O)[C@@H](C)O` [S1H], the “suppression of hGH-mediated pSTAT5” value was determined as 67%.
